According to patent US20260207570A1, “OPTIMIZED DOSING OF LERIGLITAZONE” (MINORYX THERAPEUTICS S.L., priority 2022, published 2026):
Several values for one entry are separate records, joined by “and”; a condition that tells them apart may be missing. Equal entries are not always repeated.

Assays:
[1] = Single dose neuro-pk study in rats; type: in vivo; details: rat
Method: The ratio of unbound leriglitazone concentration in brain to unbound concentration in plasma (Kpu,u; Cb,u/Cp,u) was calculated dividing the unbound CSF Cmax by the unbound plasma Cmax. Fractions unbound in plasma (fu,p) to obtain the unbound Cmax values were already reported. Rodriguez-Pascau, L. et al., Sci. Transl. Med. 13, eabc0555 (2021).
In a single dose neuro-pk study in rats, at the efficacious dose of 17 mg/kg, the unbound brain concentration of leriglitazone was 175 ng/ml similar to the measured CSF concentration of 274 ng/ml (FIG. 7). Given the validity of CSF as a surrogate marker for brain unbound concentration was proven in rats, CSF levels of leriglitazone were measured in Phase 1 study and confirmed to be similar as in rodents. Unbound brain to plasma ratio (Kpu,u) of leriglitazone as a measure of brain distribution of free drug was 0.55 in humans and 0.25 in rats (Table 7).

CYP2C8 = biological target: T1, CYP2C8 (Homo sapiens, UniProt P10632); assay: CYP2C8 contribution to clearance (fm, CLint) for the PBPK model; details: before accounting for biliary and renal clearance
T1 sequence (P10632 1-490): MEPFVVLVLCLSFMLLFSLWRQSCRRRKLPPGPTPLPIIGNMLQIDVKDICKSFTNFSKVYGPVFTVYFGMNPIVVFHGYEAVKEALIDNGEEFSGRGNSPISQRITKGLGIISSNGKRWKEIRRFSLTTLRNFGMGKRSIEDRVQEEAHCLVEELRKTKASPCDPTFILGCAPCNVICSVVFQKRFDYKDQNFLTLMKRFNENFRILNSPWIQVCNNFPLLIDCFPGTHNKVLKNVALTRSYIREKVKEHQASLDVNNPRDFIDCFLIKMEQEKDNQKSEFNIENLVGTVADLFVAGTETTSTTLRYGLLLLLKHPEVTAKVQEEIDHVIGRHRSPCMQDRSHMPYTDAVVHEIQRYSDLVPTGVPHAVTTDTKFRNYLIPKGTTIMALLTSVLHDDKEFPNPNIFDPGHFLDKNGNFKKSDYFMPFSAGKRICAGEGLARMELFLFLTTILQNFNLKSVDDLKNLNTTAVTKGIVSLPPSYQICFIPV
Description: (§1) CYP2C8 and CYP3A4 were identified in vitro as the major contributing enzymes of leriglitazone with CYP2C8 mostly responsible for the formation of the main metabolite M3. Kinetic parameters of human CYP2C8 and CYP3A4 mediated metabolism of leriglitazone were studied in in vitro studies using recombinant CYP3A4 and CYP2C8 enzymes (ADMESCOPE, Finland). […] As the disappearance of leriglitazone was very slow especially at high initial concentrations, the accuracy of the fit was not as good as based on M3 formation. […] Thus, it was not possible to fit the kinetic parameters Km and Vmax.

CYP3A4 = CYP3A4 (Homo sapiens, UniProt P08684); assay: Metabolism kinetics with recombinant CYP3A4; type: in vitro ADME; design: purchased ADMESCOPE, Finland; details: used initial concentrations; Km and Vmax could not be fitted
CYP3A4, sequence (P08684 whole entry): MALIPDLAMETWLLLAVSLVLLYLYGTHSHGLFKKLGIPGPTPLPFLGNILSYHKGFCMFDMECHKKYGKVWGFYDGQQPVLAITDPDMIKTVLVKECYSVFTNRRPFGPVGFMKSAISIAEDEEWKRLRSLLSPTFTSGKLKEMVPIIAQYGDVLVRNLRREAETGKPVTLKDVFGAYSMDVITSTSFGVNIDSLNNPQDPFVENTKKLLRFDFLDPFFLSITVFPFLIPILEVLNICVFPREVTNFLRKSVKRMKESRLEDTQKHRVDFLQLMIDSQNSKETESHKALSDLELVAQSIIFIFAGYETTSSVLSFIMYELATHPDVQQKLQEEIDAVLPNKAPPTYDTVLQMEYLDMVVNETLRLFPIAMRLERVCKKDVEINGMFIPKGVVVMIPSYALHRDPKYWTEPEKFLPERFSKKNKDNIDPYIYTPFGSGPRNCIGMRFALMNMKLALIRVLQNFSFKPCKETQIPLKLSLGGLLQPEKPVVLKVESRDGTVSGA
Description: as §1

[2] = Population pharmacokinetic model of studies MT-1-01, MT-2-01, MT-2-03; type: in vivo, human
Description: MT-1-01 (healthy volunteers), MT-2-01 (adult men with adrenomyeloneuropathy (AMN), MT-2-03 (men, women≥12 years with Friedreich's Ataxia).
A total of 2140 valid plasma concentration measurements from 130 individuals were used in the analysis. Full PK profiles were available only from MT-1-01. In MT-2-03 only pre-dose (trough) concentrations were taken at multiple visits, while in MT-2-01 also sparse post-dose samples were taken. Less than 1% of all samples were below the limit of quantification.
2. Structural model-development using only data from healthy volunteers (MT-1-01) and inclusion of key structural covariates (food, body weight).
3. Re-estimation of parameters on the full analysis dataset (MT-1-01, MT-2-01, MT-2-03). Finalization of base model.
4. Stepwise automatic covariate modeling (SCM) using the base model.
NONMEM v7.5 was used for the population modelling. The RxODE package (v0.9.2) for R (v4.0.2) was used for the simulations.
Automated stepwise covariate modeling (SCM) using a forward addition/backward deletion procedure as implemented in PsN, Karlsson and Savic, C/in Pharmacol Ther 82:17-20 (2008), was applied to the base model on the complete analysis dataset. To improve the computation time of the SCM, PsN generates a linearized form of the model applying a Taylor-transformation on which then the covariate function is applied. Anderson et al., Annu Rev Pharmacol Toxicol 48:303-332 (2008). The final model from the SCM procedure was then rerun in its original, untransformed form.
The following covariates were tested in the model for their association with CL and relative bioavailability (F): • BMI • Height • Age • Ethnicity (Hispanic yes/no) • Sex

Kp ([1]; CSF and plasma (unbound), 17 mg/kg, unbound CSF Cmax / unbound plasma Cmax, read-out: Kpu, u based on CSF): 0.25
AUC ([1]; plasma, 17 mg/kg single dose, read-out: Total plasma AUC): 102 µg·h/mL
Cmax ([1]; plasma, 17 mg/kg single dose, read-out: Total plasma Cmax): 21100 ng/mL
CSF Cmax ([1]; 17 mg/kg single dose): 274 ng/mL
Total brain AUC ([1]; 17 mg/kg single dose): 6.582 µg·h/mL
Total brain Cmax ([1]; 17 mg/kg single dose): 1337.6 ng/mL
Kpu, u based on CSF ([1]; 17 mg/kg, unbound CSF Cmax / unbound plasma Cmax): 0,25
unbound brain concentration ([1]; efficacious dose of 17 mg/kg, single dose): 175 ng/mL
share of metabolism, CYP2C8 (CYP2C8): 63.7%
saturation of metabolism by recombinant CYP3A4 (CYP3A4): did not saturate
lower CL in women ([2]; popPK covariate sex): 14.7%
reduction of absorption rate when taken with food ([2]; popPK estimate): 82.9%
reduction of bioavailability by food ([2]; popPK estimate): 4.8% and < 5%
typical rate of absorption ([2]; taken without food, popPK estimate): 5.2 h⁻¹
Compound: CC(O)c1ccc(CCOc2ccc(CC3SC(=O)NC3=O)cc2)nc1 (centres unmarked) [Leriglitazone, 5-[[4-[2-[5-(1-hydroxyethyl)pyridin-2-yl]ethoxy]phenyl]methyl]-1,3-thiazolidine-2,4-dione]
